Results published in patent US6437138B1, “3-pyridyloxymethyl heterocyclic ether compounds useful in controlling chemical synaptic transmission” (priority 1996, dated 2002).

| SMILES | melting point |
| --- | --- |
| Cl.Cl.Clc1ccc(-c2cncc(OC[C@H]3CCCN3)c2)cc1 [Example 139, 5-(4-Chlorophenyl)-3-(2-(R)-pyrrolidinylmethoxy)pyridine Dihydrochloride] | 183 to 185 °C |
| CN1CCC[C@@H]1COc1cncc(-c2ccc(Cl)cc2)c1.Cl.Cl [Example 141, 5-(4-Chlorophenyl)-3-(1-methyl-2-(R)-pyrrolidinylmethoxy)pyridine Dihydrochloride] | 223 to 225 °C |
| CCCCCCC#Cc1cncc(OC[C@H]2CCCN2C)c1.Cl.Cl [Example 145, 3-(1-Methyl-2-(R)-pyrrolidinylmethoxy)-5-(1-octynyl)pyridine Dihydrochloride] | 102 to 105 °C |
| CCCCCCC#Cc1cc(OC[C@@H]2CCCN2C)cnc1Cl.Cl.Cl [Example 146, 6-Chloro-3-(1-methyl-2-(S)-pyrrolidinylmethoxy)-5-(1-octynyl)pyridine Dihydrochloride] | 223 to 225 °C |
| CN1CCC[C@H]1COc1cnc(Cl)c(-c2cccnc2)c1.Cl.Cl [Example 147, 6-Chloro-3-(1-methyl-2-(S)-pyrrolidinylmethoxy)-5-(3-pyridyl)pyridine Dihydrochloride] | 108 to 110 °C |
| CN1CCC[C@H]1COc1cnc(Cl)c(C=CC=CC(C)(C)C)c1.Cl.Cl [Example 149, 6-Chloro-5-(5,5-dimethyl-1,3-hexadienyl)-3-(1-methyl-2-(S)-pyrrolidinylmethoxy)pyridine Dihydrochloride] | 220 °C |
| CN1CCC[C@H]1COc1cnc(Cl)c(-c2ccc(Cl)cc2)c1.Cl.Cl [Example 151, 6-Chloro-5-(4-chlorophenyl)-3-(1-methyl-2-(S)-pyrrolidinylmethoxy)pyridine Dihydrochloride] | 183 to 185 °C |
| CN1CCC[C@H]1COc1cnc(Cl)c(-c2cccs2)c1.Cl.Cl [Example 153, 6-Chloro-3-(1-methyl-2-(S)-pyrrolidinylmethoxy)-5-(2-thienyl)pyridine Dihydrochloride] | 160 to 163 °C |
| Cl.Nc1cccc(-c2cncc(OC[C@@H]3CCCN3)c2)c1 [Example 158, 5-(3-Aminophenyl)-3-(2-(S)-pyrrolidinylmethoxy)pyridine Hydrochlorid] | 68 to 70 °C |
| CN1CC[C@H]1COc1cnc(Cl)c(-c2cncnc2)c1.Cl [Example 170, 6-Chloro-3-(1-methyl-2-(S)-azetidinylmethoxy)-5-(5-pyrimidinyl)pyridine Hydrochloride] | 143 to 144 °C |
| Cl.Cl.c1ncc(-c2cncc(OC[C@@H]3CCN3)c2)cn1 [Example 171, 3-(2-(S)-Azetidinylmethoxy)-5-(5-pyrimidinyl)pyridine Dihydrochloride] | 185 °C (dec.) |
| Cl.Cl.Clc1ncc(OC[C@@H]2CCN2)cc1-c1cncnc1 [Example 172, 3-(2-(S)-Azetidinylmethoxy)-6-chloro-5-(5-pyrimidinyl)pyridine Dihydrochloride] | 144 °C (dec.) |
| C=CCc1cncc(OC[C@@H]2CCCN2C)c1.Cl.Cl [Example 177, 5-Allyl-3-(1-methyl-2-(S)-pyrrolidinylmethoxy)pyridine Dihydrochloride] | 65 to 67 °C |
| C=CCc1cc(OC[C@@H]2CCN2C)cnc1Cl.Cl [Example 179, 5-Allyl-3-(1-methyl-2-(S)-azetidinylmethoxy)-6-chloropyridine Hydrochloride] | 109 to 111 °C |
| CN1CCC[C@H]1COc1cnc(Cl)c(-c2cncnc2)c1.Cl [Example 182, 6-Chloro-3-(1-methyl-2-(S)-pyrrolidinylmethoxy)-5-(5-pyrimidinyl)pyridine Hydrochloride] | 200 to 202 °C |
| C=CCc1cc(OC[C@@H]2CCCN2C)cnc1Cl.Cl [Example 184, 5-Allyl-6-chloro-3-(1-methyl-2-(S)-pyrrolidinylmethoxy)pyridine Hydrochloride] | 150 to 152 °C |
| Cl.Clc1ncc(OC[C@H]2CCN2)cc1-c1ccccc1 [Example 186, 3-(2-(R)-Azetidinylmethoxy)-6-chloro-5-phenylpyridine Hydrochloride] | 143 to 145 °C |
| CN1CC[C@@H]1COc1cnc(Cl)c(-c2ccccc2)c1.Cl [Example 189, 6-Chloro-3-(1-methyl-2-(R)-azetidinylmethoxy)-5-phenylpyridine Hydrochloride] | 173 to 175 °C |
| Cl.Cl.c1ccc(COc2cncc(OC[C@@H]3CCN3)c2)cc1 [Example 199, 3-(2-(S)-Azetidinylmethoxy)-5-benzyloxypyridine Dihydrochloride] | 172 to 174 °C |
| CN1CC[C@H]1COc1cncc(OCc2ccccc2)c1.Cl [Example 200, 5-Benzyloxy-3-(1-methyl-2-(S)-azetidinylmethoxy)pyridine Hydrochloride] | 132 to 134 °C |
| C=Cc1ccc(OC[C@@H]2CCN2C)cn1.Cl.Cl [Example 202, 6-Ethenyl-3-(1-methyl-2-(S)-azetidinylmethoxy)pyridine Dihydrochloride] | 105 to 107 °C |

Second part, the compound after the results:

| melting point | SMILES |
| --- | --- |
| 133 to 135 °C | CCCCCCC#Cc1cc(OC[C@@H]2CCCN2)cnc1Cl.Cl.Cl [Example 140, 6-Chloro-5-(1-octynyl)-3-(2-(S)-pyrrolidinylmethoxy)pyridine Dihydrochloride] |
| 86 to 89 °C | Cl.Cl.Clc1ccc(-c2cc(OC[C@@H]3CCCN3)cnc2Cl)cc1 [Example 150, 6-Chloro-5-(4-chlorophenyl)-3-(2-(S)-pyrrolidinylmethoxy)pyridine Dihydrochloride] |
| 92 to 94 °C | CC(C)(C)C=CC=Cc1cncc(OC[C@@H]2CCCN2)c1.Cl.Cl [Example 160, 5-(5,5-Dimethyl-1,3-hexadienyl)3-(2-(S)-pyrrolidinylmethoxy)pyridine Dihydrochloride] |
| 88 to 90 °C | C=Cc1cncc(OC[C@@H]2CCN2)c1.Cl.Cl [Example 162, 3-(2-(S)-Azetidinylmethoxy)-5-ethenylpyridine Dihydrochloride] |
| 97 °C (dec.) | C=Cc1cncc(OC[C@@H]2CCCN2)c1.Cl.Cl [Example 164, 5-Ethenyl-3-(2-(S)-pyrrolidinylmethoxy)pyridine Dihydrochloride] |
| 182 to 184 °C | C=Cc1cc(OC[C@H]2CCCN2)cnc1Cl.Cl [Example 167, 6-Chloro-5-ethenyl-3-(2-(R)-pyrrolidinylmethoxy)pyridine Hydrochloride] |
| 173 to 175 °C | C=Cc1cc(OC[C@H]2CCCN2C)cnc1Cl.Cl [Example 168, 6-Chloro-5-ethenyl-3-(1-methyl-2-(R)-pyrrolidinylmethoxy)pyridine Hydrochloride] |
| 230 °C (dec.) | Cl.Clc1ncc(OC[C@@H]2CCCN2)cc1-c1cncnc1 [Example 169, 6-Chloro-5-(5-pyrimidinyl)-3-(2-(S)-pyrrolidinylmethoxy)pyridine Hydrochloride] |
| 210 °C (dec.) | Cl.Clc1ncc(OC[C@H]2CCCN2)cc1-c1cncnc1 [Example 173, 6-Chloro-5-(5-pyrimidinyl)-3-(2-(R)-pyrrolidinylmethoxy)pyridine Hydrochloride] |
| 110 to 112 °C | Cl.Cl.Cl.c1ncc(-c2cncc(OC[C@@H]3CCCN3)c2)cn1 [Example 174, 5-(5-Pyrimidinyl)-3-(2-(S)-pyrrolidinylmethoxy)pyridine Trihydrochloride] |
| 90 °C (dec.) | C#Cc1cc(OC[C@@H]2CCN2)cnc1Cl.Cl [Example 175, 3-(2-(S)-Azetidinylmethoxy)-6-chloro-5-ethynylpyridine Hydrochloride] |
| 90 to 92 °C | C=CCc1cc(OC[C@@H]2CCN2)cnc1Cl.Cl [Example 178, 5-Allyl-3-(2-(S)-azetidinylmethoxy)-6-chloropyridine Hydrochloride] |
| 90 to 92 °C | C=CCc1cc(OC[C@H]2CCCN2)cnc1Cl.Cl [Example 185, 5-Allyl-6-chloro-3-(2-(R)-pyrrolidinylmethoxy)pyridine Hydrochloride] |
| 168 to 170 °C | C=Cc1ncc(OC[C@@H]2CCCN2)cc1C.Cl [Example 187, 6-Ethenyl-5-methyl-3-(2-(S)-pyrrolidinylmethoxy)pyridine Hydrochloride] |
| 50 °C (dec.) | C=Cc1ncc(OC[C@@H]2CCCN2C)cc1C.Cl [Example 188, 6-Ethenyl-5-methyl-3-(1-methyl-2-(S)-pyrrolidinylmethoxy)pyridine Hydrochloride] |
| 155 to 157 °C | C#Cc1cc(OC[C@H]2CCN2)cnc1Cl.Cl [Example 190, 3-(2-(R)-Azetidinylmethoxy)-6-chloro-5-ethynylpyridine Hydrochloride] |
| 182 to 184 °C | C=Cc1cc(OC[C@@H]2CCCN2C)cnc1Cl.Cl [Example 192, 6-Chloro-5-ethenyl-3-(1-methyl-2-(S)-pyrrolidinylmethoxy)pyridine Hydrochloride] |
| 182 to 184 °C | COCCOc1cncc(OC[C@@H]2CCCN2)c1.Cl.Cl [Example 197, 5-Methoxyethoxy-3-(2-(S)-pyrrolidinylmethoxy)pyridine Dihydrochloride] |
| 102 to 104 °C | C=Cc1ccc(OC[C@@H]2CCN2)cn1.Cl.Cl [Example 201, 3-(2-(S)-Azetidinylmethoxy)-6-ethenylpyridine Dihydrochloride] |
